Data published in US8703701B2 (Indiana University Research and Technology Corporation, priority 2009, dated 2014).
Starred links: 1 amine or outer side, 2 acyl side, 3 side chain; linkers in the order of their positions; H or OH if unused. Non-standard residues stand in square brackets, D forms with d. Residues, ends and D or L forms follow the SMILES beside them. Groups on a side chain read outwards from the residue. *: point of attachment. Isobutyryl(2-imidazol-4-yl) = CC(C)(C(=O)*)c1c[nH]cn1; γGlu = O=C(O)[C@H](CCC(=O)[*:2])N[*:1]; Stearoyl = CCCCCCCCCCCCCCCCCC(=O)*; Palmitoyl = CCCCCCCCCCCCCCCC(=O)*; Aib = CC(C)(N)C(=O)O

Experiments:
[1] = biological target: T1, glucagon receptor (Homo sapiens, UniProt P47871); experiment: cAMP induction, firefly luciferase reporter assay, glucagon receptor; type: cell-based; details: for Activity at Glucagon Receptor % Relative Activity: compared to native glucagon
T1 construct: expressed in transfected cells; host or cells: HEK293
T1 sequence (P47871 26-477): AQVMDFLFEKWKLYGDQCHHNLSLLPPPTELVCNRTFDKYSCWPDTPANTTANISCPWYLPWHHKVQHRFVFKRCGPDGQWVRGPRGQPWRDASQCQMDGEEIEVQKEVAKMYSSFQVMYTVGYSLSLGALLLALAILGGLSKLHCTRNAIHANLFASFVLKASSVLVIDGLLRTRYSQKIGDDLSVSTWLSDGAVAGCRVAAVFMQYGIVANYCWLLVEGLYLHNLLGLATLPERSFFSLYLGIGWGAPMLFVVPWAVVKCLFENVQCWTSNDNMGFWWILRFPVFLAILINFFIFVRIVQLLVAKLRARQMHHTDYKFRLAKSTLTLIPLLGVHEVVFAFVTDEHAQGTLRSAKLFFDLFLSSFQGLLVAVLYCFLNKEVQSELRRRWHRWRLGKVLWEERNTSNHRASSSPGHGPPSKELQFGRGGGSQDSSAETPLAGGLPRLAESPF
Experimental: (§1) The ability of each peptide to induce cAMP was measured in a firefly luciferase-based reporter assay.
(§2) At the end of the incubation, 100 μL of LucLite luminescence substrate reagent (Perkin Elmer, Wellesley, Mass.) were added to each well. The plate was shaken briefly, incubated 10 min in the dark and light output was measured on MicroBeta-1450 liquid scintillation counter (Perkin-Elmer, Wellesley, Mass.).

[2] = biological target: T2, GLP-1 receptor (Homo sapiens, UniProt P43220); experiment: cAMP induction, firefly luciferase reporter assay, GLP-1 receptor; type: cell-based; details: for Activity at GLP-1 Receptor % Relative Activity: compared to native GLP-1
T2 construct: expressed in transfected cells; host or cells: HEK293
T2 sequence (P43220 24-463): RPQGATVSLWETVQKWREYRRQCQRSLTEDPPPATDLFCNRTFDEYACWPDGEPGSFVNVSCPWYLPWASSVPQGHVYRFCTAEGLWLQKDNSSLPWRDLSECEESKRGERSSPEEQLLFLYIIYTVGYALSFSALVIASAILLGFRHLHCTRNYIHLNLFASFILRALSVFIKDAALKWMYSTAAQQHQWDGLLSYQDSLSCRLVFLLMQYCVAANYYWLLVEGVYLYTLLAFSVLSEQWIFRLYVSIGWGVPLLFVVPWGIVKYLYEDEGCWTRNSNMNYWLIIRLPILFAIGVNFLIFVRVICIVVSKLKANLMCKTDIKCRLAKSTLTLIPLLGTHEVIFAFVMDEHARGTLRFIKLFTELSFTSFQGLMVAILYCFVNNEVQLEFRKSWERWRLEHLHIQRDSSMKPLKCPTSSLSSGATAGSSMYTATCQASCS
Experimental: as §1, §2

[3] = Activity at Glucagon Receptor EC50 [pM], Table 3A
[4] = Activity at GLP-1 Receptor EC50 [pM], Table 3A

CC(C)C[C@H](NC(=O)[C@H](CC(C)C)NC(=O)[C@H](Cc1c[nH]c2ccccc12)NC(=O)[C@H](CS)NC(=O)[C@@H](NC(=O)[C@H](Cc1ccccc1)NC(=O)[C@H](CCC(=O)O)NC(=O)[C@H](CCCCN)NC(=O)[C@H](C)NC(=O)[C@H](CCCNC(=N)N)NC(=O)[C@H](CCCCN)NC(=O)[C@H](CCC(=O)O)NC(=O)[C@H](CC(=O)O)NC(=O)[C@H](CC(C)C)NC(=O)[C@H](Cc1ccc(O)cc1)NC(=O)[C@H](CCCCN)NC(=O)[C@H](CO)NC(=O)[C@H](Cc1ccc(O)cc1)NC(=O)[C@H](CC(=O)O)NC(=O)[C@H](CO)NC(=O)[C@@H](NC(=O)[C@H](Cc1ccccc1)NC(=O)[C@@H](NC(=O)CNC(=O)[C@H](CCC(N)=O)NC(=O)[C@@H](CO)NC(=O)[C@@H](N)Cc1c[nH]cn1)[C@@H](C)O)[C@@H](C)O)C(C)C)C(=O)N[C@@H](CC(=O)O)C(=O)NCC(=O)NCC(=O)N1CCC[C@H]1C(=O)N[C@@H](CO)C(=O)N[C@@H](CO)C(=O)NCC(=O)N[C@@H](C)C(=O)N1CCC[C@H]1C(=O)N1CCC[C@H]1C(=O)N1CCC[C@H]1C(=O)N[C@@H](CO)C(N)=O [compound 61] (H-H[dS]QGTFTSDYSKYLDEKRAKEFVCWLLDGGPSSGAPPPS-NH2; N-terminus assumed)
Activity at Glucagon Receptor % Relative Activity ([1]; Table 2B): 88%
Activity at GLP-1 Receptor % Relative Activity ([2]; Table 2B): 39%

CCCCCCCCCCCCCCCC(=O)N[C@@H](CCC(=O)NCCCC[C@H](NC(=O)[C@H](CC(=O)O)NC(=O)[C@H](CO)NC(=O)[C@@H](NC(=O)[C@H](Cc1ccccc1)NC(=O)[C@@H](NC(=O)CNC(=O)[C@H](CCC(N)=O)NC(=O)C(C)(C)NC(=O)[C@@H](N)Cc1c[nH]cn1)[C@@H](C)O)[C@@H](C)O)C(=O)N[C@@H](CO)C(=O)N[C@@H](CCCCN)C(=O)N[C@@H](Cc1ccc(O)cc1)C(=O)N[C@@H](CC(C)C)C(=O)N[C@@H](CC(=O)O)C(=O)N[C@@H](CCC(=O)O)C(=O)N[C@@H](CCC(N)=O)C(=O)N[C@@H](C)C(=O)N[C@@H](C)C(=O)N[C@@H](CCCCN)C(=O)N[C@@H](CCC(=O)O)C(=O)N[C@@H](Cc1ccccc1)C(=O)N[C@H](C(=O)N[C@@H](C)C(=O)N[C@@H](Cc1c[nH]c2ccccc12)C(=O)N[C@@H](CC(C)C)C(=O)N[C@@H](CC(C)C)C(=O)N[C@@H](CC(=O)O)C(=O)N[C@H](C(N)=O)[C@@H](C)O)[C@@H](C)CC)C(=O)O [compound 52]
EC50 [1, 3]: 2.9 pM
Activity at Glucagon Receptor % Relative Activity ([1]; Table 3A): 379%
EC50 [2, 4]: 2.9 pM
Activity at GLP-1 Receptor % Relative Activity ([2]; Table 3A): 1276%

CCCCCCCCCCCCCCCC(=O)N[C@@H](CCC(=O)NCCCC[C@H](NC(=O)[C@H](CC(=O)O)NC(=O)[C@H](CO)NC(=O)[C@@H](NC(=O)[C@H](Cc1ccccc1)NC(=O)[C@@H](NC(=O)CNC(=O)[C@H](CCC(N)=O)NC(=O)[C@H](CO)NC(=O)C(C)(C)c1c[nH]cn1)[C@@H](C)O)[C@@H](C)O)C(=O)N[C@@H](CO)C(=O)N[C@@H](CCCCN)C(=O)N[C@@H](Cc1ccc(O)cc1)C(=O)N[C@@H](CC(C)C)C(=O)N[C@@H](CC(=O)O)C(=O)N[C@@H](CCC(=O)O)C(=O)N[C@@H](CCC(N)=O)C(=O)N[C@@H](C)C(=O)N[C@@H](C)C(=O)N[C@@H](CCCCN)C(=O)N[C@@H](CCC(=O)O)C(=O)N[C@@H](Cc1ccccc1)C(=O)N[C@H](C(=O)N[C@@H](CS)C(=O)N[C@@H](Cc1c[nH]c2ccccc12)C(=O)N[C@@H](CC(C)C)C(=O)N[C@@H](CC(C)C)C(=O)N[C@@H](CC(=O)O)C(=O)N[C@H](C(N)=O)[C@@H](C)O)[C@@H](C)CC)C(=O)O [compound 54] ({Isobutyryl(2-imidazol-4-yl)}-SQGTFTSDK([γGlu-Palmitoyl])SKYLDEQAAKEFICWLLDT-NH2)
EC50 ([1]; Activity at Glucagon Receptor EC50 [nM], Table 5): 107 pM
Activity at Glucagon Receptor % Relative Activity ([1]; Table 5): 35%
Activity at GLP-1 Receptor % Relative Activity ([2]; Table 5): 42%

CCCCCCCCCCCCCCCCCC(=O)N[C@@H](CCC(=O)N[C@@H](CCC(=O)NCCCC[C@H](NC(=O)[C@H](CC(=O)O)NC(=O)[C@H](CO)NC(=O)[C@@H](NC(=O)[C@H](Cc1ccccc1)NC(=O)[C@@H](NC(=O)CNC(=O)[C@H](CCC(N)=O)NC(=O)C(C)(C)NC(=O)[C@@H](N)Cc1c[nH]cn1)[C@@H](C)O)[C@@H](C)O)C(=O)N[C@@H](CO)C(=O)N[C@@H](CCCCN)C(=O)N[C@@H](Cc1ccc(O)cc1)C(=O)N[C@@H](CC(C)C)C(=O)N[C@@H](CC(=O)O)C(=O)NC(C)(C)C(=O)N[C@@H](CCCNC(=N)N)C(=O)N[C@@H](C)C(=O)N[C@@H](C)C(=O)N[C@@H](CCC(N)=O)C(=O)N[C@@H](CC(=O)O)C(=O)N[C@@H](Cc1ccccc1)C(=O)N[C@H](C(=O)N[C@@H](CCC(N)=O)C(=O)N[C@@H](Cc1c[nH]c2ccccc12)C(=O)N[C@@H](CC(C)C)C(=O)N[C@@H](CCSC)C(=O)N[C@@H](CC(=O)O)C(=O)N[C@H](C(N)=O)[C@@H](C)O)C(C)C)C(=O)O)C(=O)O [compound 71] (H-H[Aib]QGTFTSDK([γGlu-γGlu-Stearoyl])SKYLD[Aib]RAAQDFVQWLMDT-NH2; N-terminus assumed)
EC50 ([1]; Activity at Glucagon Receptor EC50 [pM], Table 3B): 4 pM
Activity at Glucagon Receptor % Relative Activity ([1]; Table 3B): 975%
Activity at GLP-1 Receptor % Relative Activity ([2]; Table 3B): 1222%

CC(C)C[C@H](NC(=O)[C@H](Cc1c[nH]c2ccccc12)NC(=O)[C@H](CS)NC(=O)[C@@H](NC(=O)[C@H](Cc1ccccc1)NC(=O)[C@H](CCC(=O)O)NC(=O)[C@H](CCCCN)NC(=O)[C@H](C)NC(=O)[C@H](C)NC(=O)[C@H](CCCCN)NC(=O)C(C)(C)NC(=O)[C@H](CC(=O)O)NC(=O)[C@H](CC(C)C)NC(=O)[C@H](Cc1ccc(O)cc1)NC(=O)[C@H](CCCCN)NC(=O)[C@H](CO)NC(=O)[C@H](Cc1ccc(O)cc1)NC(=O)[C@H](CC(=O)O)NC(=O)[C@H](CO)NC(=O)[C@@H](NC(=O)[C@H](Cc1ccccc1)NC(=O)[C@@H](NC(=O)CNC(=O)[C@H](CCC(N)=O)NC(=O)C(C)(C)NC(=O)[C@@H](N)Cc1c[nH]cn1)[C@@H](C)O)[C@@H](C)O)C(C)C)C(=O)N[C@@H](CC(C)C)C(=O)N[C@@H](CC(=O)O)C(=O)N[C@H](C(N)=O)[C@@H](C)O [compound 64] (H-H[Aib]QGTFTSDYSKYLD[Aib]KAAKEFVCWLLDT-NH2; N-terminus assumed)
Activity at Glucagon Receptor % Relative Activity ([1]; Table 2B): 79%
EC50 ([2]; Activity at GLP-1 Receptor EC50 (nM), Table 2B): 12 pM
Activity at GLP-1 Receptor % Relative Activity ([2]; Table 2B): 308%

CCCCCCCCCCCCCCCC(=O)N[C@@H](CCC(=O)N[C@@H](CCC(=O)NCCCC[C@H](NC(=O)[C@H](CC(=O)O)NC(=O)[C@H](CO)NC(=O)[C@@H](NC(=O)[C@H](Cc1ccccc1)NC(=O)[C@@H](NC(=O)CNC(=O)[C@H](CCC(N)=O)NC(=O)C(C)(C)NC(=O)[C@@H](N)Cc1c[nH]cn1)[C@@H](C)O)[C@@H](C)O)C(=O)N[C@@H](CO)C(=O)N[C@@H](CCCCN)C(=O)N[C@@H](Cc1ccc(O)cc1)C(=O)N[C@@H](CC(C)C)C(=O)N[C@@H](CC(=O)O)C(=O)N[C@@H](CCC(=O)O)C(=O)N[C@@H](CCCNC(=N)N)C(=O)N[C@@H](C)C(=O)N[C@@H](C)C(=O)N[C@@H](CCC(N)=O)C(=O)N[C@@H](CC(=O)O)C(=O)N[C@@H](Cc1ccccc1)C(=O)N[C@H](C(=O)N[C@@H](CCC(N)=O)C(=O)N[C@@H](Cc1c[nH]c2ccccc12)C(=O)N[C@@H](CC(C)C)C(=O)N[C@@H](CCSC)C(=O)N[C@@H](CC(=O)O)C(=O)N[C@H](C(N)=O)[C@@H](C)O)C(C)C)C(=O)O)C(=O)O [compound 50]
EC50 [1, 3]: 2 pM
Activity at Glucagon Receptor % Relative Activity ([1]; Table 3A): 1000%
EC50 [2, 4]: 5 pM
Activity at GLP-1 Receptor % Relative Activity ([2]; Table 3A): 500%

CCCCCCCCCCCCCCCC(=O)N[C@@H](CCC(=O)N[C@@H](CCC(=O)NCCCC[C@H](NC(=O)[C@H](CC(=O)O)NC(=O)[C@H](CO)NC(=O)[C@@H](NC(=O)[C@H](Cc1ccccc1)NC(=O)[C@@H](NC(=O)CNC(=O)[C@H](CCC(N)=O)NC(=O)C(C)(C)NC(=O)[C@@H](N)Cc1c[nH]cn1)[C@@H](C)O)[C@@H](C)O)C(=O)N[C@@H](CO)C(=O)N[C@@H](CCCCN)C(=O)N[C@@H](Cc1ccc(O)cc1)C(=O)N[C@@H](CC(C)C)C(=O)N[C@@H](CC(=O)O)C(=O)NC(C)(C)C(=O)N[C@@H](CCCNC(=N)N)C(=O)N[C@@H](C)C(=O)N[C@@H](C)C(=O)N[C@@H](CCC(N)=O)C(=O)N[C@@H](CC(=O)O)C(=O)N[C@@H](Cc1ccccc1)C(=O)N[C@H](C(=O)N[C@@H](CCC(N)=O)C(=O)N[C@@H](Cc1c[nH]c2ccccc12)C(=O)N[C@@H](CC(C)C)C(=O)N[C@@H](CCSC)C(=O)N[C@@H](CC(=O)O)C(=O)N[C@H](C(N)=O)[C@@H](C)O)C(C)C)C(=O)O)C(=O)O [compound 42] (H-H[Aib]QGTFTSDK([γGlu-γGlu-Palmitoyl])SKYLD[Aib]RAAQDFVQWLMDT-NH2; N-terminus assumed)
Activity at Glucagon Receptor % Relative Activity ([1]; Table 3A): 863%
EC50 [2, 4]: 5 pM
Activity at GLP-1 Receptor % Relative Activity ([2]; Table 3A): 500%
